Measurements from patent US20250009852A1, “DEPLETING EGFR AND HER2 OVERCOMES RESISTANCE TO EGFR INHIBITORS IN COLORECTAL CANCER” (Health Research, Inc., priority 2021, published 2025).

What was measured:
HCT116 tumors = experiment: Subcutaneous HCT116 tumors in SCID mice; type: in vivo, mouse; details: sc HCT116 tumors; 5-FU 35 mg/kg ip every 3-4 days, alone or with EP and PEPD^G278D 4 mg/kg, without aderbasib (FIG. 14)
Experimental: SCID mice (C.B.17 SCID) were bred by the Laboratory Animal Shared Resource at Roswell Park Comprehensive Cancer Center. Male mice at 7-8 weeks of age were used. All mouse experiments were approved by the Institutional Animal Care and Use Committee at Roswell Park Comprehensive Cancer Center under protocol 1022M. We established subcutaneous tumors by inoculating 1×10^6 HCT116 cells, 4×10^6 HT29 cells, or 2×10^6 SW48 cells to the flank of each mouse in 100 μl of serum free medium. Colon patient-derived xenograft (PDX) 14650 was established from a liver metastatic lesion in a patient treated at Roswell Park Comprehensive Cancer Center. Tumor fragments (˜20 mm^3) from donor mice were implanted into the flank of each mouse subcutaneously using a trocar. Orthotopic colon tumors in mice were established by inoculating HCT116 cells stably transfected with firefly luciferase (2×10^6 cells in 50 μl of 50% serum-free medium and 50% Matrigel) to the caecum wall of each mouse. Mice in each tumor model were randomized cage-wise into treatment groups using Research Randomizer (www.randomizer.org). Subcutaneous tumor volume was measured using length ×width^2÷2. Tumor volume was measured three times each week. Orthotopic tumor growth was monitored by bioluminescence weekly. Mice were given D-luciferin (150 mg/kg) by ip and anesthetized with isoflurane, and tumor burden was measured by bioluminescence using the IVIS Spectrum In Vivo Imaging System (PerkinElmer). Drug treatment was started when significant tumor growth was detected. EP (0.5 mg/kg) was administered to mice ip once daily. […] Aderbasib (60 mg/kg) was administered to mice by gavage once daily. 5-FU (35 mg/kg) was administered to mice ip twice weekly (Monday and Thursday). EP, PEPD^G278D and 5-FU were administered to mice in PBS. Aderbasib was first dissolved in DMSO and then diluted by PBS (final 5% DMSO by volume). Each agent was administered to mice at 0.1 ml volume per 20 g body weight. When a mouse was given multiple agents on the same day, the agents were dosed at approximately 30 min intervals. The mice were closely monitored for sign of adverse effects and weighed three times each week. Mice were sacrificed 24-48 hours after the last treatment, at which point the tumors were promptly removed, snap frozen and stored at −80° C. for later analysis. Some tumors were fixed in 10% buffered formalin, paraffin embedded, cut at 4 μm, and stained with hematoxylin and eosin (H & E) for histological analysis.

HT29 tumors = experiment: Subcutaneous HT29 tumors in SCID mice; type: in vivo, mouse; details: sc HT29 tumors; 5-FU 35 mg/kg ip every 4 days (FIG. 14)
Experimental: SCID mice (C.B.17 SCID) were bred by the Laboratory Animal Shared Resource at Roswell Park Comprehensive Cancer Center. Male mice at 7-8 weeks of age were used. All mouse experiments were approved by the Institutional Animal Care and Use Committee at Roswell Park Comprehensive Cancer Center under protocol 1022M. We established subcutaneous tumors by inoculating 1×10^6 HCT116 cells, 4×10^6 HT29 cells, or 2×10^6 SW48 cells to the flank of each mouse in 100 μl of serum free medium. Colon patient-derived xenograft (PDX) 14650 was established from a liver metastatic lesion in a patient treated at Roswell Park Comprehensive Cancer Center. Tumor fragments (˜20 mm^3) from donor mice were implanted into the flank of each mouse subcutaneously using a trocar. Orthotopic colon tumors in mice were established by inoculating HCT116 cells stably transfected with firefly luciferase (2×10^6 cells in 50 μl of 50% serum-free medium and 50% Matrigel) to the caecum wall of each mouse. Mice in each tumor model were randomized cage-wise into treatment groups using Research Randomizer (www.randomizer.org). Subcutaneous tumor volume was measured using length ×width^2÷2. Tumor volume was measured three times each week. Orthotopic tumor growth was monitored by bioluminescence weekly. Mice were given D-luciferin (150 mg/kg) by ip and anesthetized with isoflurane, and tumor burden was measured by bioluminescence using the IVIS Spectrum In Vivo Imaging System (PerkinElmer). Drug treatment was started when significant tumor growth was detected. EP (0.5 mg/kg) was administered to mice ip once daily. PEPD^G278D (4 mg/kg) was administered to mice ip thrice weekly (Monday, Wednesday, Friday). Aderbasib (60 mg/kg) was administered to mice by gavage once daily. 5-FU (35 mg/kg) was administered to mice ip twice weekly (Monday and Thursday). EP, PEPD^G278D and 5-FU were administered to mice in PBS. Aderbasib was first dissolved in DMSO and then diluted by PBS (final 5% DMSO by volume). […] The mice were closely monitored for sign of adverse effects and weighed three times each week. […]

[1] = Monitoring of mice for signs of adverse effects; type: in vivo; details: mouse, in vivo, ip, 35 mg/kg
Experimental: SCID mice (C.B.17 SCID) were bred by the Laboratory Animal Shared Resource at Roswell Park Comprehensive Cancer Center. Male mice at 7-8 weeks of age were used. All mouse experiments were approved by the Institutional Animal Care and Use Committee at Roswell Park Comprehensive Cancer Center under protocol 1022M. We established subcutaneous tumors by inoculating 1×10^6 HCT116 cells, 4×10^6 HT29 cells, or 2×10^6 SW48 cells to the flank of each mouse in 100 μl of serum free medium. Colon patient-derived xenograft (PDX) 14650 was established from a liver metastatic lesion in a patient treated at Roswell Park Comprehensive Cancer Center. Tumor fragments (˜20 mm^3) from donor mice were implanted into the flank of each mouse subcutaneously using a trocar. […] Subcutaneous tumor volume was measured using length ×width^2÷2. Tumor volume was measured three times each week. Orthotopic tumor growth was monitored by bioluminescence weekly. Mice were given D-luciferin (150 mg/kg) by ip and anesthetized with isoflurane, and tumor burden was measured by bioluminescence using the IVIS Spectrum In Vivo Imaging System (PerkinElmer). Drug treatment was started when significant tumor growth was detected. […] The mice were closely monitored for sign of adverse effects and weighed three times each week. […]

EGFR = experiment: Immunofluorescence staining and confocal microscopy of EGFR trafficking in SW48 cells; type: cell-based, human; details: chloroquine 25 μM plus PEPD^G278D 25 nM
Experimental: SW48 cells were grown in chamber slides (4×10^4 cells/well) overnight with or without subsequent treatment with PEPD^G278D (25 nM) and/or chloroquine (25 μM) for up to 6 h. The cells were then washed with ice-cold PBS, fixed with 4% paraformaldehyde for 20 min at room temperature (RT), washed again with ice-cold PBS and blocked with 1% BSA in PBS for 1 h at RT. The cells were then incubated with an EGFR antibody, a His tag antibody for detection of PEPD^G278D, and/or a LAMP1 antibody overnight at 4° C., washed with PBS, incubated with a secondary antibody conjugated to Alexa-Fluor 488 or Alexa-Fluor 647 antibody for 1 h at RT and washed again with PBS. The cells were then examined with a BZ-X700 fluorescence microscope (Keyence) with a S PL FL ELWD ADM 40xC objective. Merged images from Z-stack were organized using the ImageJ software (NIH Image).

HCT116 cells = experiment: MTT cell proliferation assay; type: cell-based, human; details: 24, 48 or 72 h, PEPD^G278D 5-250 nM, cetuximab 2.75-275 nM, panitumumab 2.77-277 nM
Experimental: (§1) Cells were grown in 96-well plates. […] The cells were then washed with PBS and mixed with dimethyl sulfoxide (150 μl per well), and cell density was determined by measuring the reduction of MTT to formazan spectroscopically at 570 nm using a Synergy 2 Multi-Mode Microplate Reader (BioTek). In experiments involving siRNA transfection, 2×10^3 HCT116 cells or 6×10^3 HT29 cells were seeded to each well of 96-well plates overnight and then transfected 25 nM siRNA (scramble siRNA, EGFR siRNA or HER2 siRNA) as described above, followed by MTT assay.

HT29 cells = experiment: MTT cell proliferation assay; type: cell-based, human; details: 24, 48 or 72 h, PEPD^G278D 5-250 nM, cetuximab 2.75-275 nM, panitumumab 2.77-277 nM
Experimental: as §1

SW48 cells = experiment: MTT cell proliferation assay; type: cell-based, human; details: 24, 48 or 72 h, PEPD^G278D 5-250 nM, cetuximab 2.75-275 nM, panitumumab 2.77-277 nM
Experimental: as §1

[2] = tested on: HER3, MET, IGF1R, SRC, AKT, ERK, MEK; experiment: Western blotting of whole cell lysates: other RTKs and downstream signaling proteins; type: cell-based, human; details: HCT116, HT29 and SW620 cells; 275-277 nM, 48 h
Experimental: To prepare whole cell lysates, cells were washed with PBS twice, mixed with 1× cell lysis buffer from Cell Signaling Technology supplemented with 2 mM PMSF and a protease inhibitor cocktail from Roche Applied Science, placed on ice for 10 min, sonicated at 0-4° C. to enhance cell lysis using a Branson Model 450 sonifier, and finally centrifuged at 13,000 g for 10 min at 4° C., and the supernatant fraction is collected as whole cell lysate. Tumor and samples were mixed with RIPA buffer (25 mM Tris-HCl, PH7.6, 150 mM NaCl, 1% Nonidet P-40, 1% sodium deoxycholate, and 0.1% SDS), which was supplemented with 2 mM PMSF, the protease inhibitor cocktail mentioned above, phosphatase inhibitor cocktail 2 and phosphatase inhibitor cocktail 3 from Sigma-Aldrich at 14.3 μl buffer per mg tissue, and homogenized in a Dounce homogenizer. The homogenates were cleared by centrifugation at 13,000 g for 15 min at 4° C.
Protein concentrations in all samples were measured using the BCA Assay Kit. For Western blotting, each sample was mixed with 4× loading dye, heated for 5 min at 95° C., and resolved by SDS-PAGE (8-12.5%). Proteins were transferred to polyvinylidene fluoride membrane, probed with specific antibodies, and detected using either Luminata Classico (Millipore) or Luminata Cresendo (Millipore). For IP, cell lysates (0.5 mg protein/sample) were incubated with a desired antibody overnight at 4° C., followed by incubation of 500 μl sample with 30 μl G-Sepharose beads (2 mg/ml) for 1 h at RT. The beads were washed three times with IP buffer, suspended in 2× SDS loading buffer, boiled for 5 min, and analyzed by Western blotting.

[3] = target: Epidermal growth factor receptor (EGFR), wild type, P00533
[4] = target: T1, Epidermal growth factor receptor (EGFR), wild type (human, UniProt P00533 25-1210); experiment: immunofluorescence staining and confocal microscopy of SW48 cells treated with PEPD^G278D (25 nM), anti-His tag and anti-EGFR
T1 construct: whole, on cells; also called WT EGFR; ErbB1
Experimental: The cells were then washed with ice-cold PBS, fixed with 4% paraformaldehyde for 20 min at room temperature (RT), washed again with ice-cold PBS and blocked with 1% BSA in PBS for 1 h at RT. […] The cells were then examined with a BZ-X700 fluorescence microscope (Keyence) with a S PL FL ELWD ADM 40xC objective. Merged images from Z-stack were organized using the ImageJ software (NIH Image).
SW48 cells were cultured in serum-free medium.

**Q.** For `O=c1[nH]cc(F)c(=O)[nH]1` [5-FU, fluorouracil], which tumor growth (HCT116 tumors) is on record?
**A.** Its tumor growth is “ineffective”.

**Q.** What about the tumor growth (HT29 tumors) of the same molecule?
**A.** The tumor growth was “ineffective”.

**Q.** And the “toxicity in a dose-finding experiment” value [1]?
**A.** The value was “not toxic”.

**Q.** For `CCN(CC)CCCC(C)Nc1ccnc2cc(Cl)ccc12` (centres unmarked) [chloroquine, reference compound], which “EGFR degradation induced by PEPD^G278D” value (EGFR) is on record?
**A.** Its value is “blocked EGFR degradation”.

**Q.** For panitumumab [reference compound], which “cell growth measured by MTT assay” value (HCT116 cells) is on record?
**A.** The value was “neither agent is active”.

**Q.** And the “cell growth measured by MTT assay” value (HT29 cells)?
**A.** The value was “neither agent is active”.

**Q.** What about the “cell growth measured by MTT assay” value (SW48 cells) of the same molecule?
**A.** Its value is “inhibited the growth of SW48 cells in a time- and concentration-dependent manner”.

**Q.** What about the “effect on MET and ERK” value [2] of the same molecule?
**A.** Its value is “neither cetuximab nor panitumumab had any effect”.

B1: PEPD^G278D (recombinant, enzymatically inactive mutant of human peptidase D, glycine 278 replaced by aspartic acid) (enzyme)
chain: AAATGPSFWLGNETLKVPLALFALNRQRLCERLRKNPAVQAGSIVVLQGGEETQRYCTDTGVLFLQESFFHWAFGVTEPGCYGVIDVDTGKSTLFVPRLPASHATWMGKIHSKEHFKEKYAVDDVQYVDEIASVLTSQKPSVLLTLRGVNTDSGSVCREASFDGISKFEVNNTILHPEIVESRVFKTDMELEVLRYTNKISSEAHREVMKAVKVGMKEYGLESLFEHYCYSRGGMRHSSYTCICGSGENSAVLHYGHAGAPNDRTIQNGDMCLFDMDGEYYSVASDITCSFPRNGKFTADQKAVYEAVLLSSRAVMGAMKPGDWWPDIDRLADRIHLEELAHMGILSGSVDAMVQAHLGAVFMPHGLGHFLGIDVHDVGGYPEGVERIDEPGLRSLRTARHLQPGMVLTVEPGIYFIDHLLDEALADPARASFLNREVLQRFRGFGGVRIEEDVVVIDSGIELLTCVPRTVEEIEACMAGCDKAFTPFSGPK
notes: Made in E. coli and purified by nickel chromatography; The His tag is placed C-terminal by the plasmid's name only; also called PEPD^G278D-His; hPEPD-G278D; not shown: His tag from pBAD/TOPO-PEPD^G278D-His
**Q.** With B1 as the molecule, how does the “expression and tyrosine phosphorylation of EGFR (Western blotting, 25 nM, 48 h)” value [3] read?
**A.** The value was “PEPD^G278D obliterated both expression and tyrosine phosphorylation of EGFR and HER2 in SW48, HCT116 and HT29 cells”.

**Q.** What about the “expression and tyrosine phosphorylation of HER2 (Western blotting, 25 nM, 48 h)” value (HER2, P04626) of the same molecule?
**A.** Its value is “PEPD^G278D obliterated both expression and tyrosine phosphorylation of EGFR and HER2 in SW48, HCT116 and HT29 cells”.

**Q.** Does B1 bind [4]?
**A.** Result: binds
